Laboratory results reported in ChEMBL document CHEMBL2146447, “Synthesis and antimicrobial activity of amido linked pyrrolyl and pyrazolyl-oxazoles, thiazoles and imidazoles” (2011).
Calls of active or inactive are those of the source. No cut-off for these calls is given here.

Columns and labels:
Assay type in all cases: functional
[1] = test system: Staphylococcus aureus; experiment: Antibacterial activity against Staphylococcus aureus assessed at 50 ug after 24 hrs by agar well diffusion method; settings: for zone of inhibition at 50 µg/disc: read-out: DIZ
[2] = test system: Bacillus subtilis; experiment: Antibacterial activity against Bacillus subtilis at 100 ug after 24 hrs by agar well diffusion method; settings: for zone of inhibition at 100 µg/disc: read-out: DIZ
[3] = test system: Bacillus subtilis; experiment: Antibacterial activity against Bacillus subtilis at 50 ug after 24 hrs by agar well diffusion method; settings: for zone of inhibition at 50 µg/disc: read-out: DIZ
[4] = test system: Staphylococcus aureus; experiment: Antibacterial activity against Staphylococcus aureus at 100 ug after 24 hrs by agar well diffusion method; settings: for zone of inhibition at 100 µg/disc: read-out: DIZ
[5] = test system: Klebsiella pneumoniae; experiment: Antibacterial activity against Klebsiella pneumoniae at 100 ug after 24 hrs by agar well diffusion method; settings: for zone of inhibition at 100 µg/disc: read-out: DIZ
[6] = test system: Pseudomonas aeruginosa; experiment: Antibacterial activity against Pseudomonas aeruginosa at 50 ug after 24 hrs by agar well diffusion method; settings: for zone of inhibition at 50 µg/disc: read-out: DIZ
[7] = test system: Aspergillus niger; experiment: Antifungal activity against Aspergillus niger at 100 ug after 48 hrs by agar well diffusion method; settings: for zone of inhibition at 100 µg/disc: read-out: DIZ
[8] = test system: Klebsiella pneumoniae; experiment: Antibacterial activity against Klebsiella pneumoniae at 50 ug after 24 hrs by agar well diffusion method; settings: for zone of inhibition at 50 µg/disc: read-out: DIZ
[9] = test system: Penicillium chrysogenum; experiment: Antifungal activity against Penicillium chrysogenum at 100 ug after 48 hrs by agar well diffusion method; settings: for zone of inhibition at 100 µg/disc: read-out: DIZ
[10] = test system: Aspergillus niger; experiment: Antifungal activity against Aspergillus niger at 50 ug after 48 hrs by agar well diffusion method; settings: for zone of inhibition at 50 µg/disc: read-out: DIZ
[11] = test system: Penicillium chrysogenum; experiment: Antifungal activity against Penicillium chrysogenum at 50 ug after 48 hrs by agar well diffusion method; settings: for zone of inhibition at 50 µg/disc: read-out: DIZ
[12] = test system: Pseudomonas aeruginosa; experiment: Antibacterial activity against Pseudomonas aeruginosa at 100 ug after 24 hrs by agar well diffusion method; settings: for zone of inhibition at 100 µg/disc: read-out: DIZ

Compound	zone of inhibition at 50 µg/disc [1] [mm]	zone of inhibition at 100 µg/disc [2] [mm]	zone of inhibition at 50 µg/disc [3] [mm]	zone of inhibition at 100 µg/disc [4] [mm]	zone of inhibition at 100 µg/disc [5] [mm]	zone of inhibition at 50 µg/disc [6] [mm]	zone of inhibition at 100 µg/disc [7] [mm]	zone of inhibition at 50 µg/disc [8] [mm]	zone of inhibition at 100 µg/disc [9] [mm]	zone of inhibition at 50 µg/disc [10] [mm]	zone of inhibition at 50 µg/disc [11] [mm]	zone of inhibition at 100 µg/disc [12] [mm]	also measured
O=C(Nc1nc(-c2ccc(Cl)cc2)co1)c1n[nH]cc1-c1ccccc1	20	22	21	23	24	19	27	23	29	24	26	21	–
O=C(Nc1nc(-c2ccccc2)c[nH]1)c1c[nH]cc1-c1ccccc1	15	20	18	17	22	14	18	20	20	16	17	15	–
O=C(Nc1nc(-c2ccccc2)co1)c1n[nH]cc1-c1ccccc1	10	15	13	12	17	10	13	15	15	10	12	12	–
O=C(Nc1nc(-c2ccccc2)cs1)c1n[nH]cc1-c1ccccc1	9	14	12	12	16	9	12	14	14	9	11	11	–
Cc1ccc(-c2csc(NC(=O)c3n[nH]cc3-c3ccccc3)n2)cc1	9	13	10	11	15	8	11	13	13	8	10	11	–
O=C(Nc1nc(-c2ccccc2)c[nH]1)c1n[nH]cc1-c1ccccc1	8	13	10	10	14	9	10	12	12	8	9	11	–
O=C(Nc1nc(-c2ccccc2)co1)C1=NNCC1c1ccccc1 (stereo unspecified)	–	–	–	–	–	–	–	–	–	–	–	–	diameter of the inhibition zone (DIZ) [1]: inactive; diameter of the inhibition zone (DIZ) [2]: inactive; diameter of the inhibition zone (DIZ) [3]: inactive; diameter of the inhibition zone (DIZ) [4]: inactive; diameter of the inhibition zone (DIZ) [5]: inactive; diameter of the inhibition zone (DIZ) [6]: inactive; diameter of the inhibition zone (DIZ) [7]: inactive; diameter of the inhibition zone (DIZ) [8]: inactive; diameter of the inhibition zone (DIZ) [9]: inactive; diameter of the inhibition zone (DIZ) [10]: inactive; diameter of the inhibition zone (DIZ) [11]: inactive; diameter of the inhibition zone (DIZ) [12]: inactive
O=C(Nc1nc(-c2ccc(Cl)cc2)cs1)c1c[nH]cc1-c1ccccc1	26	29	27	27	30	23	31	29	33	29	30	25	–
Cc1ccc(-c2csc(NC(=O)/C=C/c3ccccc3)n2)cc1	20	25	23	22	27	15	23	25	25	19	22	17	–
O=C(/C=C/c1ccccc1)Nc1nc(-c2ccccc2)cs1	21	26	24	23	28	17	24	26	26	21	23	18	–
O=C(Nc1nc(-c2ccccc2)c[nH]1)C1=NNCC1c1ccccc1 (stereo unspecified)	12	17	15	14	19	12	15	17	17	13	14	14	–
Cc1ccc(-c2csc(NC(=O)c3c[nH]cc3-c3ccccc3)n2)cc1	16	21	19	18	23	13	19	21	21	18	18	15	–
O=C(/C=C/c1ccccc1)Nc1nc(-c2ccccc2)c[nH]1	19	24	22	21	26	16	22	24	24	19	21	17	–
O=C(Nc1nc(-c2ccccc2)co1)c1c[nH]cc1-c1ccccc1	12	15	13	14	–	–	–	–	–	–	–	–	diameter of the inhibition zone (DIZ) [5]: inactive; diameter of the inhibition zone (DIZ) [6]: inactive; diameter of the inhibition zone (DIZ) [7]: inactive; diameter of the inhibition zone (DIZ) [8]: inactive; diameter of the inhibition zone (DIZ) [9]: inactive; diameter of the inhibition zone (DIZ) [10]: inactive; diameter of the inhibition zone (DIZ) [11]: inactive; diameter of the inhibition zone (DIZ) [12]: inactive
O=C(Nc1nc(-c2ccc(Cl)cc2)c[nH]1)C1=NNCC1c1ccccc1 (stereo unspecified)	25	27	24	27	30	21	30	28	32	28	29	24	–
Cc1ccc(-c2csc(NC(=O)C3=NNCC3c3ccccc3)n2)cc1 (stereo unspecified)	13	18	16	15	20	12	16	18	18	13	15	13	–
O=C(Nc1nc(-c2ccc(Cl)cc2)cs1)c1n[nH]cc1-c1ccccc1	27	31	28	29	33	24	32	30	34	30	31	26	–
Cc1ccc(-c2c[nH]c(NC(=O)c3c[nH]cc3-c3ccccc3)n2)cc1	14	19	17	16	21	13	17	19	19	14	16	14	–
